Laboratory results reported in US20260151372A1, “AZOTOMYCIN PRODRUGS WITH PREFERENTIAL TUMOR DELIVERY” (The Johns Hopkins University, priority 2022, published 2026).
Entries after “also recorded” stand apart in the source; their conditions may differ.

Columns and labels:
[1] = Metabolic stability in CES1-KO mouse liver homogenate; assay type: in vitro ADME; settings: tissue homogenate, 10 μM, 37° C.
Experimental: (§1) In vitro stability studies were done using CES1KO mouse plasma, human plasma, CES1-KO mouse liver, and human liver microsomes as previously described. For tissue homogenate stability studies, washed tissue was diluted 10-fold in 0.1 M potassium phosphate buffer and homogenized using probe sonication. Crude homogenate was then aliquoted to 1 mL, and spiked with 10 mM stock of the analyte in DMSO to achieve a 10 μM final concentration. The plasma stability of the prodrugs was determined by spiking the analyte in 1 mL of plasma. The plasma and tissues were incubated in an orbital shaker at 37° C. Stability in human liver microsomes was assessed at a final prodrug concentration of 1 μM with 0.2 mg/mL protein for microsomes. All the stability studies were conducted at predetermined times (0 and 60 min), where 50 μL aliquots of the mixture in triplicate were removed and the reaction was quenched by addition of 5 times the volume of ice-cold methanol spiked with the internal standard (losartan: 0.5 μM). The samples were vortex-mixed for 30 s and centrifuged at 10,000 g for 10 min at 4° C. An amount of 50 μL of the supernatant was diluted with 50 μL of water and transferred to a 250 μL polypropylene vial sealed with a Teflon cap. Prodrug disappearance was monitored over time using liquid chromatography and mass spectrometry (LC-MS).
(§2) Analyses were performed on a Dionex ultra high-performance LC system coupled with Q Exactive Focus orbitrap mass spectrometer (Thermo Fisher Scientific Inc., Waltham MA). Separation was achieved using Agilent Eclipse Plus column (100×2.1 mm i.d., maintained at 35° C.) packed with a 1.8 μm C18 stationary phase. The mobile phase consisted of 0.1% formic acid in water and 0.1% formic acid in acetonitrile, […] were operated at a flow rate of 0.3 mL/min for 7 min using gradient elution. The mass spectrometer controlled by Xcalibur software 4.0.27.13 (Thermo Scientific) was operated with a HESI ion source in positive ionization mode. Metabolites were identified in the full-scan mode (from m/z 50 to 1600) by comparing […] samples

[2] = Plasma stability in CES1KO mouse plasma; assay type: in vitro ADME; settings: for Plasma Stability (% Remaining at 60 min) CES1^−/− Mouse Plasma: 37° C.; for stability in vitro (in words): mouse and human plasma and liver microsomes in vitro
Experimental: as §1, §2

[3] = Plasma stability in human plasma; assay type: in vitro ADME; settings: 37° C.
Experimental: as §1, §2

[4] = Pharmacokinetics in C57BL/6 CES1^−/− mice bearing flank EL4 tumors; assay type: in vivo
Experimental: The pharmacokinetic study in C57BL/6 CES1 mice was conducted according to protocols reviewed and approved by the Johns Hopkins Institutional Animal Care and Use Committee in compliance with the Association for Assessment and Accreditation of Laboratory Animal Care International and the Public Health Service Policy on the Humane Care and Use of Laboratory Animals (PHS Policy). Briefly, naïve male and female C57BL/6 CES1^−/− mice (weighing between 25 and 30 g) 6-8 weeks of age were used. The animals were maintained on a 12 h light-dark cycle with ad libitum access to food and water. Tumors were grown via subcutaneous (SC) injection of EL4 cells (1×10^6 cells in 0.2 mL of phosphate-buffered saline) in one location on the flank of each mouse. […]
For quantifying intact analytes in the pharmacokinetic samples, plasma samples (25 μL) were processed using a single step protein precipitation method by addition of 125 μL of methanol containing internal standard (losartan: 0.5 μM), followed by vortex-mixing for 30 s and then centrifugation at 16,000 g for 5 min at 4° C. […]
The samples were subjected to dabsyl chloride derivatization and analyzed by LC-MS/MS, as described in Tenora et al., 2019. […]

[5] = Metabolic stability in human liver microsomes; assay type: in vitro ADME; settings: 1 μM prodrug, 0.2 mg/mL protein
Experimental: as §1, §2

SMILES	Liver Stability (% Remaining at 60 min) CES1^−/− Mouse Liver [1] [%]	Plasma Stability (% Remaining at 60 min) CES1^−/− Mouse Plasma [2] [%]	stability in vitro (in words) [2]	Plasma Stability (% Remaining at 60 min) Human Plasma [3] [%]	preferential tumor delivery / tumor targeting (in words) [4]	Liver Stability (% Remaining at 60 min) Human Liver Microsomes [5] [%]
CN(C)CC(=O)N[C@@H](CCC(=O)N[C@@H](CCC(=O)C=[N+]=[N-])C(=O)N[C@@H](CCC(=O)C=[N+]=[N-])C(=O)OC(C)(C)C)C(=O)OC(C)(C)C [Prodrug P3, tert-Butyl (6S,11S,14S)-6-(tert-butoxycarbonyl)-11,14-bis(4-diazo-3-oxobutyl)-2-methyl-4,9,12-trioxo-2,5,10,13-tetraazapentadecan-15-oate]	96.0 ± 4.36	92.3 ± 0.882	stable	106 ± 2.40	exhibited preferential tumor delivery	105 ± 2.53
CN(C)CC(=O)N[C@@H](Cc1c[nH]c2ccccc12)C(=O)N[C@@H](CCC(=O)N[C@@H](CCC(=O)C=[N+]=[N-])C(=O)N[C@@H](CCC(=O)C=[N+]=[N-])C(=O)OC(C)(C)C)C(=O)OC(C)(C)C [Prodrug P4, tert-Butyl (6S,9S,14S,17S)-6-((1H-indol-3-yl)methyl)-9-(tert-butoxycarbonyl)-14,17-bis(4-diazo-3-oxobutyl)-2-methyl-4,7,12,15-tetraoxo-2,5,8,13,16-pentaazaoctadecan-18-oate]	54.3 ± 1.45	101 ± 4.67	stable	100 ± 0.00	exhibited preferential tumor delivery; also recorded: showed tumor targeting	107 ± 1.63
